# Legend:
# stromelysin = biological target: T1, stromelysin (Homo sapiens, UniProt P08254); test: Determination of stromelysin inhibition (cleavage of thiopeptide ester substrate, DTNB readout); format: biochemical; details: for IC50: recombinant truncated human stromelysin, pH 6.5, 30 min, ambient temperature, read-out: IC50, inhibitory potency against stromelysin
# T1 construct: made in house; host or cells: E. coli
# Protocol: The inhibition of stromelysin by the compounds of this invention was determined as follows: Recombinant truncated stromelysin (human sequence) produced in E. coli was prepared by expression and purification of the protein as described by Ye et al., Biochemistry, 1992, 31, 11231-11235. The enzyme was assayed by its cleavage of the thiopeptide ester substrate Ac-Pro-Leu-Gly-[2-mercapto-4-methyl-pentanoyl]-Leu-Gly-OEt described by Weingarten and Feder, Anal Biochem., 1985, 147, 437-440 (1985), as a substrate of vertebrate collagenase. The reported conditions were modified to allow assays to be carried out in a microtiter plate. Upon hydrolysis of the thioester bond, the released thiol group reacts rapidly with 5,5'-dithio-bis(2-nitrobenzoic acid) (DTNB), producing a yellow color which is measured by a microtiter plate reader set al 405 nm. The rates of cleavage of the substrate by stromelysin in the presence or absence of inhibitors are measured in a 30 min assay at ambient temperature. Solutions of the compounds in DMSO are prepared, and these are diluted at various concentrations into the assay buffer (50 mM MES/NaOH pH 6.5 with 10 mM CaCl2 and 0.2% Pluronic F-68), which is also used for dilution of the enzyme and substrate. The potency of the compounds [IC50 ] are calculated from the inhibition/inhibitor concentration data.
# TNFα secretion = test: HL-60 TNFα Release Assay (inhibition of TNFα secretion, ELISA); format: cell-based; details: Homo sapiens, HL-60 cells, 40 nM phorbol myristate acetate, 20 hr at 37° C.
# Protocol: The inhibition of TNFα secretion by the compounds of this invention was determined using a HL-60 TNFα Release Assay. HL-60 cells were cultured in RPMI 1640 with 10% fetal bovine serum and penicillin/streptomycin. HL-60 cells (150,000 cells/well) were placed in 96 well culture plates in RPMI 1640 with 10% fetal bovine serum and pen/strep containing 40 nM phorbol myristate acetate and test compound in DMSO (final DMSO 0.1%). HL-60 cells were then cultured for 20 hr at 37° C. (95% humidity) after which cell supernatants were collected for analysis of TNFα by ELISA.
# T1 sequence (P08254 100-273 limits assumed): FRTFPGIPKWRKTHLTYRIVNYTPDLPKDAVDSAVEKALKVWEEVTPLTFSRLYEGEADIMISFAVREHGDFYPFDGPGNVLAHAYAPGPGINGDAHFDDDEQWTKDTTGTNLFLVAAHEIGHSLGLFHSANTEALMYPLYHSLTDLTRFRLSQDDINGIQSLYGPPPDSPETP
IC50 (stromelysin),Compound,inhibition at 16 µM (TNFα secretion),further results
74 µM,"O=C(CCCOc1cccc(-c2ccc(F)cc2)c1)NO [Example 15, 4-[3-(4-fluorophenyl)phenoxy]butanohydroxamic acid]",63%,–
–,"O=C(CCCOc1cc(-c2ccccc2)ccc1O)NO [Example 41, 4-(2-hydroxy-5-phenylphenoxy)butanohydroxamic acid]",–,inhibition at 100 µM (stromelysin): 36%
2.5 µM,"N#Cc1cccc(-c2cccc(OCCCC(=O)NO)c2)c1 [Example 17, 4-[3-(3-cyanophenyl)phenoxy]butanohydroxamic acid]",–,–
–,"O=C(CCCCOc1ccc(-c2ccccc2)cc1)NO [Example 19, 5-[4-phenylphenoxy]pentanohydroxamic acid]",61%,–
0.35 µM,"CNC(=O)C(CCOc1ccc(-c2ccc(C#N)cc2)cc1)CC(=O)NO (stereo not shown) [Example 29, 3-(N-methylcarboxamido)-5-[4-(4-cyanophenyl)phenoxy]pentanohydroxamic acid]",–,–
–,"O=C(CCCOc1ccc(-c2ccccc2)cc1O)NO [Example 40, 4-(2-hydroxy-4-phenylphenoxy)butanohydroxamic acid]",–,inhibition at 100 µM (stromelysin): 39%
74 µM,"O=C(CCCCOc1cccc(-c2ccccc2)c1)NO [Example 18, 5-[3-phenylphenoxy]pentanohydroxamic acid]",62%,–
77 µM,"O=C(CCCCCOc1ccc(-c2ccccc2)cc1)NO [Example 21, 6-[4-phenylphenoxy]hexanohydroxamic acid]",–,–
30 µM,"O=C(CCc1ccc(-c2ccccc2)cc1)NO [Example 37, 3-(4-biphenyl)propanohydroxamic acid]",–,–
46 µM,"N#Cc1cccc(-c2ccc(OCCCC(=O)NO)cc2)c1 [Example 4, 4-[4-(3-cyanophenyl)phenoxy]butanohydroxamic acid]",64%,–
0.15 µM,"C[C@@H](COc1ccc(-c2ccccc2)cc1)C(=O)NO [Example 28, (S)2-methyl-3-(4-phenylphenoxy)propanohydroxamic acid]",–,–
10 µM,"CCCc1ccc(-c2ccc(OCCCC(=O)NO)cc2)cc1 [Example 8, 4-[4-(4-propylphenyl)phenoxy]butanohydroxamic acid]",35%,–
–,"O=C(CCCCOc1cccc(-c2ccc(F)cc2)c1)NO [Example 12, 5-[3-(4-fluorophenyl)phenoxy]pentanohydroxamic acid]",62%,inhibition at 100 µM (stromelysin): 20%
–,"O=C(CCCCCCOc1ccc(-c2ccccc2)cc1)NO [Example 10, 7-(4-phenylphenoxy)heptanohydroxamic acid]",–,inhibition at 100 µM (stromelysin): 45%
0.19 µM,"O=C(CCOc1ccc(-c2ccc(F)cc2)cc1)NO [Example 27, 3-[4-(4-fluorophenyl)phenoxy]propanohydroxamic acid]",–,–
8.3 µM,"N#Cc1ccc(-c2ccc(CCCC(=O)NO)cc2)cc1 [Example 35, 4-[4-(4-cyanophenyl)phenyl]butanohydroxamic acid]",–,–
21 µM,"N#CCc1ccc(-c2ccc(OCCCC(=O)NO)cc2)cc1 [Example 5, 4-[4-(4-cyanomethylphenyl)phenoxy]butanohydroxamic acid]",82%,–
–,"O=C(CCCOc1cccc(-c2ccccc2)c1)NO [Example 2, 4-(3-phenylphenoxy)butanohydroxamic acid]",–,inhibition at 100 µM (stromelysin): 5%
0.079 µM,"COc1ccc(-c2ccc(OCCC(=O)NO)cc2)cc1 [Example 26, 3-[4-(4-methoxyphenyl)phenoxy]propanohydroxamic acid]",–,–
3.5 µM,"N#Cc1ccc(-c2ccc(OCCCC(=O)NO)cc2)cc1 [Example 3, 4-[4-(4-cyanophenyl)phenoxy]butanohydroxamic acid]",–,–
–,"O=C(CCCCOc1ccc(-c2ccc(F)cc2)cc1)NO [Example 39, 5-[4-(4-fluorophenyl)phenoxy]pentanohydroxamic acid]",–,inhibition at 100 µM (stromelysin): 47%

IC50 (stromelysin),Compound,inhibition at 16 µM (TNFα secretion),further results
1 µM,"O=C(CCCCc1ccc(-c2ccccc2)cc1)NO [Example 38, 5-(4-biphenyl)pentanohydroxamic acid]",65%,–
–,"N#Cc1cccc(-c2cccc(OCCCCC(=O)NO)c2)c1 [Example 13, 5-[3-(3-cyanophenyl)phenoxy]pentanohydroxamic acid]",67%,inhibition at 100 µM (stromelysin): 24%
0.49 µM,"CC(C)(C)OC(=O)CC(CCOc1ccc(-c2ccc(C#N)cc2)cc1)C(=O)NO (stereo not shown) [Example 43, 2-tert-butyloxycarbonylmethyl-4-[4-(4-cyanophenyl)phenoxy]butanohydroxamic acid]",–,–
–,"N#Cc1ccc(-c2ccc(OCCCCC(=O)NO)cc2)cc1 [Example 20, 5-[4-(4-cyanophenyl)phenoxy]pentanohydroxamic acid]",50%,–
1.9 µM,"N#CCc1cccc(-c2ccc(OCCCC(=O)NO)cc2)c1 [Example 6, 4-[4-(3-cyanomethylphenyl)phenoxy]butanohydroxamic acid]",40%,–
123 µM,"N#Cc1ccc(-c2cccc(OCCCCC(=O)NO)c2)cc1 [Example 14, 5-[3-(4-cyanophenyl)phenoxy]pentanohydroxamic acid]",64%,–
24 µM,"N#Cc1ccc(-c2cccc(OCCCC(=O)NO)c2)cc1 [Example 16, 4-[3-(4-cyanophenyl)phenoxy]butanohydroxamic acid]",–,–
2.3 µM,"O=C(NO)C(O)COc1ccc(-c2ccccc2)cc1 (stereo not shown) [Example 45, 2-hydroxy-3-[(4-phenyl)phenoxy]propanohydroxamic acid]",–,–
58 µM,"O=C(CCCc1ccc(-c2ccccc2)cc1)NO [Example 34, 4-(4-biphenyl)butanohydroxamic acid]",52%,–
0.88 µM,"O=C(CSc1ccc(-c2ccccc2)cc1)NO [Example 31, 2-(4-biphenylthio)ethanohydroxamic acid]",–,–
2.1 µM,"O=C(CCSc1ccc(-c2ccccc2)cc1)NO [Example 30, 3-(4-biphenylthio)propanohydroxamic acid]",–,–
0.015 µM,"N#CCc1cccc(-c2ccc(OCCC(=O)NO)cc2)c1 [Example 42, 3-[4-(3-cyanomethylphenyl)phenoxy]propanohydroxamic acid]",–,–
–,"O=C(CCCOc1ccc(-c2ccccc2)cc1)NO [Example 1, 4-(4-phenylphenoxy)butanohydroxamic acid]",27%,–
–,"O=C(CCCOc1ccc(-c2ccc(Cl)cc2)cc1)NO [Example 7, 4-[4-(4-chlorophenyl)phenoxy]butanohydroxamic acid]",35%,inhibition at 100 µM (stromelysin): 47%
34 µM,"COc1ccc(-c2ccc(OCCCC(=O)NO)cc2)cc1 [Example 9, 4-[4-(4-methoxyphenyl)phenoxy]butanohydroxamic acid]",–,–
2.3 µM,"N#Cc1ccc(-c2ccc(OCCCCCCC(=O)NO)cc2)cc1 [Example 11, 7-[4-(4-cyanophenyl)phenoxy]heptanohydroxamic acid]",77%,–
0.19 µM,"N#CCc1ccc(-c2ccc(OCCC(=O)NO)cc2)cc1 [Example 44, 3-[4-(4-cyanomethylphenyl)phenoxy]propanohydroxamic acid]",–,–
–,"O=C(CCOc1cccc(-c2ccccc2)c1)NO [Example 24, 3-(3-phenylphenoxy)propanohydroxamic acid]",59%,inhibition at 10 µM (stromelysin; @ 10 μM): 14%
4.6 µM,"O=C(CCNc1ccc(-c2ccccc2)cc1)NO [Example 32, 3-(4-biphenylamino)propanohydroxamic acid]",–,–
–,"O=C(Cc1ccc(-c2ccccc2)cc1)NO [Example 33, 2-(4-biphenyl)ethanohydroxamic acid]",–,inhibition at 100 µM (stromelysin): 14%

# — patent US5665777A, “Biphenyl hydroxamate inhibitors of matrix metalloproteinases” (Abbott Laboratories, priority 1995, dated 1997)
